Laboratory results taken from patent US20170190671A1, “BIS(ARYL)CATECHOL DERIVATIVES AS HERBICIDES” (E I DU PONT DE NEMOURS AND COMPANY, priority 2014, published 2017).

Experiments:
Assay in all cases: Test C preemergence
Format in all cases: in vivo
[1] = test system: galium (catchweed bedstraw, Galium aparine); details: Galium, pre-emergence, 336 h, scale 0 to 100, read-out: Plant response rating, Galium
Summary of the method: (§1)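 Greenhouse test; preemergence on seeded loam-sand soil or spray on 1- to 4-leaf plants; solvent + surfactant vehicle; 13-15 day hold; visual comparison with controls; 0 (no effect)-100 (complete control).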

[2] = test system: johnsongrass (Sorghum halepense); details: Sorghum halepense, pre-emergence, 336 h, scale 0 to 100, read-out: Plant response rating, Johnsongrass
Summary of the method: as §1

[3] = test system: morningglory (Ipomoea coccinea); details: Ipomoea, pre-emergence, 336 h, scale 0 to 100, read-out: Plant response rating, Morningglory
Summary of the method: as §1

[4] = test system: giant foxtail (Setaria faberii); details: Setaria faberi, pre-emergence, 336 h, scale 0 to 100, read-out: Plant response rating, Foxtail, Giant
Summary of the method: as §1

[5] = test system: ragweed (common ragweed, Ambrosia elatior); details: Ambrosia artemisiifolia, pre-emergence, 336 h, scale 0 to 100, read-out: Plant response rating, Ragweed
Summary of the method: as §1

[6] = test system: lambsquarters (Chenopodium album); details: Chenopodium album, pre-emergence, 336 h, scale 0 to 100, read-out: Plant response rating, Lambsquarters
Summary of the method: as §1

[7] = test system: large (Lg) crabgrass (Digitaria sanguinalis); details: Digitaria sanguinalis, pre-emergence, 336 h, scale 0 to 100, read-out: Plant response rating, Crabgrass, Large
Summary of the method: as §1

[8] = test system: winter wheat (Triticum aestivum); details: Triticum aestivum, pre-emergence, 336 h, scale 0 to 100, read-out: Plant response rating, Wheat
Summary of the method: as §1

[9] = test system: barnyardgrass (Echinochloa crus-galli); details: Echinochloa crus-galli, pre-emergence, read-out: Plant response rating, Barnyardgrass
Summary of the method: as §1

corn (Zea mays) = details: Zea mays, pre-emergence, 336 h, scale 0 to 100
Summary of the method: as §1

[10] = test system: pigweed (Amaranthus retroflexus); details: Amaranthus retroflexus, pre-emergence, 336 h, scale 0 to 100, read-out: Plant response rating, Pigweed
Summary of the method: as §1

soybean (Glycine max) = details: Glycine max, pre-emergence, scale 0 to 100, read-out: Plant response rating, Soybean
Summary of the method: as §1

[11] = test system: velvetleaf (Abutilon theophrasti); details: Abutilon theophrasti, pre-emergence, scale 0 to 100, read-out: Plant response rating, Velvetleaf
Summary of the method: as §1

[12] = test system: Italian ryegrass (Lolium multiflorum); details: Lolium multiflorum, pre-emergence, 336 h, scale 0 to 100, read-out: Plant response rating, Ryegrass, Italian
Summary of the method: as §1

[13] = test system: waterhemp (common waterhemp, Amaranthus rudis); details: Amaranthus tuberculatus, pre-emergence, scale 0 to 100, read-out: Plant response rating, Waterhemp
Summary of the method: as §1

Fc1cnc(Oc2c(F)ccc(F)c2Oc2ncc(F)cn2)nc1 [Compound 29, 2,2′-[(3,6-difluoro-1,2-phenylene)bis(oxy)]bis[5-fluoropyrimidine]]
pest or weed control at 31 g/ha ([1]; 31 g ai/ha, preemergence): 100%
pest or weed control at 62 g/ha ([1]; 62 g ai/ha, preemergence): 100%
pest or weed control at 125 g/ha ([1]; 125 g ai/ha, preemergence): 100%
pest or weed control at 16 g/ha ([1]; Preemergence, 16 g ai/ha): 95%
pest or weed control at 31 g/ha ([2]; 31 g ai/ha, preemergence): 70%
pest or weed control at 62 g/ha ([2]; 62 g ai/ha, preemergence): 80%
pest or weed control at 125 g/ha ([2]; 125 g ai/ha, preemergence): 85%
pest or weed control at 16 g/ha ([2]; Preemergence, 16 g ai/ha): 55%
pest or weed control at 31 g/ha ([3]; 31 g ai/ha, preemergence): 75%
pest or weed control at 62 g/ha ([3]; 62 g ai/ha, preemergence): 80%
pest or weed control at 125 g/ha ([3]; 125 g ai/ha, preemergence): 85%
pest or weed control at 16 g/ha ([3]; Preemergence, 16 g ai/ha): 55%
pest or weed control at 31 g/ha ([4]; 31 g ai/ha, preemergence): 80%
pest or weed control at 62 g/ha ([4]; 62 g ai/ha, preemergence): 85%
pest or weed control at 125 g/ha ([4]; 125 g ai/ha, preemergence): 98%
pest or weed control at 16 g/ha ([4]; Preemergence, 16 g ai/ha): 75%
pest or weed control at 31 g/ha ([5]; 31 g ai/ha, preemergence): 85%
pest or weed control at 62 g/ha ([5]; 62 g ai/ha, preemergence): 85%
pest or weed control at 125 g/ha ([5]; 125 g ai/ha, preemergence): 95%
pest or weed control at 16 g/ha ([5]; Preemergence, 16 g ai/ha): 90%
pest or weed control at 31 g/ha ([6]; 31 g ai/ha, preemergence): 85%
pest or weed control at 62 g/ha ([6]; 62 g ai/ha, preemergence): 85%
pest or weed control at 125 g/ha ([6]; 125 g ai/ha, preemergence): 90%
pest or weed control at 16 g/ha ([6]; Preemergence, 16 g ai/ha): 80%
pest or weed control at 31 g/ha ([7]; 31 g ai/ha, preemergence): 95%
pest or weed control at 62 g/ha ([7]; 62 g ai/ha, preemergence): 95%
pest or weed control at 125 g/ha ([7]; 125 g ai/ha, preemergence): 98%
pest or weed control at 16 g/ha ([7]; Preemergence, 16 g ai/ha): 95%
plant injury at 31 g/ha ([8]; 31 g ai/ha, preemergence): 5%
plant injury at 62 g/ha ([8]; 62 g ai/ha, preemergence): 35%
plant injury at 125 g/ha ([8]; 125 g ai/ha, preemergence): 60%
plant injury at 16 g/ha ([8]; Preemergence, 16 g ai/ha): 0%
pest or weed control at 31 g/ha ([9]; 31 g ai/ha, preemergence, scale 0 to 100): 75%
pest or weed control at 62 g/ha ([9]; 62 g ai/ha, preemergence, scale 0 to 100): 98%
pest or weed control at 125 g/ha ([9]; 125 g ai/ha, preemergence, scale 0 to 100): 100%
pest or weed control at 16 g/ha ([9]; Preemergence, 16 g ai/ha, scale 0 to 100 (0 no effect, 100 complete control)): 25%
Corn plant response rating (crop injury, 0 = no effect, 100 = complete kill) at 31 g/ha (corn (Zea mays); 31 g ai/ha, preemergence): 15%
Corn plant response rating (crop injury, 0 = no effect, 100 = complete kill) at 62 g/ha (corn (Zea mays); 62 g ai/ha, preemergence): 25%
Corn plant response rating (crop injury, 0 = no effect, 100 = complete kill) at 125 g/ha (corn (Zea mays); 125 g ai/ha, preemergence): 65%
Corn plant response rating (crop injury, 0 = no effect, 100 = complete kill) at 16 g/ha (corn (Zea mays); Preemergence, 16 g ai/ha): 0%
pest or weed control at 31 g/ha ([10]; 31 g ai/ha, preemergence): 100%
pest or weed control at 62 g/ha ([10]; 62 g ai/ha, preemergence): 100%
pest or weed control at 125 g/ha ([10]; 125 g ai/ha, preemergence): 100%
pest or weed control at 16 g/ha ([10]; Preemergence, 16 g ai/ha): 98%
plant injury at 31 g/ha (soybean (Glycine max); 31 g ai/ha, preemergence): 85%
plant injury at 62 g/ha (soybean (Glycine max); 62 g ai/ha, preemergence): 90%
plant injury at 125 g/ha (soybean (Glycine max); 125 g ai/ha, preemergence): 90%
plant injury at 16 g/ha (soybean (Glycine max); Preemergence, 16 g ai/ha): 70%
pest or weed control at 31 g/ha ([11]; 31 g ai/ha, preemergence): 98%
pest or weed control at 62 g/ha ([11]; 62 g ai/ha, preemergence): 90%
pest or weed control at 125 g/ha ([11]; 125 g ai/ha, preemergence): 98%
pest or weed control at 16 g/ha ([11]; Preemergence, 16 g ai/ha): 75%
pest or weed control at 31 g/ha ([12]; 31 g ai/ha, preemergence): 15%
pest or weed control at 62 g/ha ([12]; 62 g ai/ha, preemergence): 50%
pest or weed control at 125 g/ha ([12]; 125 g ai/ha, preemergence): 60%
pest or weed control at 16 g/ha ([12]; Preemergence, 16 g ai/ha): 30%
pest or weed control at 31 g/ha ([13]; 31 g ai/ha, preemergence): 100%
pest or weed control at 62 g/ha ([13]; 62 g ai/ha, preemergence): 100%
pest or weed control at 125 g/ha ([13]; 125 g ai/ha, preemergence): 100%
pest or weed control at 16 g/ha ([13]; Preemergence, 16 g ai/ha): 100%
